{
  "source": "ChEMBL document CHEMBL6071181",
  "about": "“Discovery of ZLC491 as a Potent, Selective, and Orally Bioavailable CDK12/13 PROTAC Degrader” (J Med Chem, 2024)",
  "key": {"[1]": {"target": "T1, Protein cereblon/Cyclin-dependent kinase 12 (Homo sapiens) (UniProt Q9NYV4+Q96SW2)", "T1 sequence (Q96SW2 whole entry, looked up)": "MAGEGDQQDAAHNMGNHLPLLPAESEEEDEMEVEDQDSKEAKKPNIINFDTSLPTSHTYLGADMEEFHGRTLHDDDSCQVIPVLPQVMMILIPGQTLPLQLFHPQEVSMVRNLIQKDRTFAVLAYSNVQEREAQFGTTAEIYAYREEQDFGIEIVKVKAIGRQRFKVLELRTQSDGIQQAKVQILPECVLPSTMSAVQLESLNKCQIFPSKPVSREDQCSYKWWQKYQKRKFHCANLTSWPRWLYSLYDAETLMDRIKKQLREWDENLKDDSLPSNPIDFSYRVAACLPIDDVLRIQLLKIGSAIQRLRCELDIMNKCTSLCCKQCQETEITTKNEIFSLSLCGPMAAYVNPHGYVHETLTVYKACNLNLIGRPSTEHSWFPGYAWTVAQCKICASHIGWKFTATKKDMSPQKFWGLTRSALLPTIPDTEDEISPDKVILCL", "T1 sequence (Q9NYV4 whole entry, looked up)": "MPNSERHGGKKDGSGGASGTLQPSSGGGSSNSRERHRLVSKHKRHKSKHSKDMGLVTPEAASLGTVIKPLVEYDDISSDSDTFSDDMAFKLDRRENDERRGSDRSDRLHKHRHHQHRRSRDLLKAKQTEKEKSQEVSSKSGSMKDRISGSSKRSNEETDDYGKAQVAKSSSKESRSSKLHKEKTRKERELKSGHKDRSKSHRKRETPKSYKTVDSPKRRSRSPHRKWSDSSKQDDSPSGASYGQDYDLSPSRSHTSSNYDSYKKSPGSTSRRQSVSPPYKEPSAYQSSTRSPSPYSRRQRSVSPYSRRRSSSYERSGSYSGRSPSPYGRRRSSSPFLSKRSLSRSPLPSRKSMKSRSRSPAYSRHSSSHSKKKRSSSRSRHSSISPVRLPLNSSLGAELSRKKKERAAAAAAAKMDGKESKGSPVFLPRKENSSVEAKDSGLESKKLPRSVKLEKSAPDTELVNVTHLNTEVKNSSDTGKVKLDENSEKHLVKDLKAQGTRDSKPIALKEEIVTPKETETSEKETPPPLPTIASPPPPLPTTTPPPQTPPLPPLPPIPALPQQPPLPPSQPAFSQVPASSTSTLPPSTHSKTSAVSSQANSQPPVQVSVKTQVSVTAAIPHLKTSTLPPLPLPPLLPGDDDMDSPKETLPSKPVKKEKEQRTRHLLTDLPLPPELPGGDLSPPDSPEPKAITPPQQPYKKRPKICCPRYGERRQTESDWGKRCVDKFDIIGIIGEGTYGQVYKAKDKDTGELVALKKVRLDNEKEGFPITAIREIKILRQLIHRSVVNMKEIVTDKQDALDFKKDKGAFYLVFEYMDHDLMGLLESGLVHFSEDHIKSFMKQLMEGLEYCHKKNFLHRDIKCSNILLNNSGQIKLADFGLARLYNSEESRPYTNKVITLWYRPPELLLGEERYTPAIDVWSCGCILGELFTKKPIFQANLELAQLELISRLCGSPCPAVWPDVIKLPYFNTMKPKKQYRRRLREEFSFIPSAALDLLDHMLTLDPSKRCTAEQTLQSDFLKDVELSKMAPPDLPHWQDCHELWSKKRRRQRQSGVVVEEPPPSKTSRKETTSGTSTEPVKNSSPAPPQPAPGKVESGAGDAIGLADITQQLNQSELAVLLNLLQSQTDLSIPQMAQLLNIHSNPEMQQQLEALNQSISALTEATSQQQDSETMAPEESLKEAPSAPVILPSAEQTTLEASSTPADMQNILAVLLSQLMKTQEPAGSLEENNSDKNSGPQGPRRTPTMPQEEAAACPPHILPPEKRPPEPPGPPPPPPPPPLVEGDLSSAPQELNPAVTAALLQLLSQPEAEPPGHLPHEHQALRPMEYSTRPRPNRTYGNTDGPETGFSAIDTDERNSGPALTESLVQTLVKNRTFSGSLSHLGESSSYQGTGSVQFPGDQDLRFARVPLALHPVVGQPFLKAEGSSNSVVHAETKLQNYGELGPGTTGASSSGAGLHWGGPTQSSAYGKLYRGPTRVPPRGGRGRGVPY", "test": "In vivo PROTAC activity at CRBN/CDK12 in female CB17SCID mouse model xenografted with human MDA-MB-231 cells assessed as reduction in CDK12 protein expression in tumor at 100 to 200 mg/kg, po administered for 5 days by immunoblotting analysis", "format": "functional, organism-based", "details": "dose 100-200 mg/kg, time 5.0 day"}, "[2]": {"target": "T1, Protein cereblon/Cyclin-dependent kinase 12 (Homo sapiens)", "test": "PROTAC activity at CRBN/CDK12 in human MDA-MB-231 cells assessed as induction of CDK12 degradation at 1 uM pretreated with MG132 followed by compound addition and measured after 10 hrs by immunoblotting analysis", "format": "cell-based"}, "[3]": {"target": "T1, Protein cereblon/Cyclin-dependent kinase 12 (Homo sapiens)", "test": "PROTAC activity at CRBN/CDK12 in human MDA-MB-231 cells assessed as induction of CDK12 degradation at 2 uM incubated for 8 hrs by global proteomic analysis", "format": "cell-based"}, "[4]": {"test_system": "MDA-MB-231", "test": "Synergistic antiproliferative activity against human MDA-MB-231 cells assessed as inhibition of cell growth at 0.3 to 7.5 uM incubated for 5 days in presence of olaparib by CCK8 assay", "format": "functional, cell-based", "details": "dose 0.3-7.5 µM, time 5.0 day"}, "[5]": {"target": "T1, Protein cereblon/Cyclin-dependent kinase 12 (Homo sapiens)", "test": "PROTAC activity at CRBN/CDK12 in human MDA-MB-231 cells assessed as induction of CDK12 degradation at 1 uM by immunoblotting analysis", "format": "cell-based", "details": "time <= 24.0 hrs, TDE = time-dependent effect"}, "[6]": {"test_system": "MDA-MB-231", "test": "Downregulation of ATM mRNA expression in human MDA-MB-231 cells incubated for 12 hrs by RT-qPCR analysis", "format": "functional, cell-based", "details": "dose 60-300 nM"}, "[7]": {"test_system": "MDA-MB-231", "test": "Downregulation of SMARCC mRNA expression in human MDA-MB-231 cells incubated for 12 hrs by RT-qPCR analysis", "format": "functional, cell-based", "details": "dose 60-300 nM"}, "[8]": {"test_system": "MDA-MB-231", "test": "Antiproliferative activity against human MDA-MB-231 cells xenografted in female CB17SCID mouse model assessed as increase in TUNEL signaling in tumor at 200 mg/kg, po administered for 5 days by TUNEL staining based immunohistochemical analysis", "format": "functional, organism-based", "details": "time 5.0 day"}, "[9]": {"target": "T2, Protein cereblon/Cyclin-dependent kinase 13 (Homo sapiens) (UniProt Q14004+Q96SW2)", "T2 sequence (Q14004 whole entry, looked up)": "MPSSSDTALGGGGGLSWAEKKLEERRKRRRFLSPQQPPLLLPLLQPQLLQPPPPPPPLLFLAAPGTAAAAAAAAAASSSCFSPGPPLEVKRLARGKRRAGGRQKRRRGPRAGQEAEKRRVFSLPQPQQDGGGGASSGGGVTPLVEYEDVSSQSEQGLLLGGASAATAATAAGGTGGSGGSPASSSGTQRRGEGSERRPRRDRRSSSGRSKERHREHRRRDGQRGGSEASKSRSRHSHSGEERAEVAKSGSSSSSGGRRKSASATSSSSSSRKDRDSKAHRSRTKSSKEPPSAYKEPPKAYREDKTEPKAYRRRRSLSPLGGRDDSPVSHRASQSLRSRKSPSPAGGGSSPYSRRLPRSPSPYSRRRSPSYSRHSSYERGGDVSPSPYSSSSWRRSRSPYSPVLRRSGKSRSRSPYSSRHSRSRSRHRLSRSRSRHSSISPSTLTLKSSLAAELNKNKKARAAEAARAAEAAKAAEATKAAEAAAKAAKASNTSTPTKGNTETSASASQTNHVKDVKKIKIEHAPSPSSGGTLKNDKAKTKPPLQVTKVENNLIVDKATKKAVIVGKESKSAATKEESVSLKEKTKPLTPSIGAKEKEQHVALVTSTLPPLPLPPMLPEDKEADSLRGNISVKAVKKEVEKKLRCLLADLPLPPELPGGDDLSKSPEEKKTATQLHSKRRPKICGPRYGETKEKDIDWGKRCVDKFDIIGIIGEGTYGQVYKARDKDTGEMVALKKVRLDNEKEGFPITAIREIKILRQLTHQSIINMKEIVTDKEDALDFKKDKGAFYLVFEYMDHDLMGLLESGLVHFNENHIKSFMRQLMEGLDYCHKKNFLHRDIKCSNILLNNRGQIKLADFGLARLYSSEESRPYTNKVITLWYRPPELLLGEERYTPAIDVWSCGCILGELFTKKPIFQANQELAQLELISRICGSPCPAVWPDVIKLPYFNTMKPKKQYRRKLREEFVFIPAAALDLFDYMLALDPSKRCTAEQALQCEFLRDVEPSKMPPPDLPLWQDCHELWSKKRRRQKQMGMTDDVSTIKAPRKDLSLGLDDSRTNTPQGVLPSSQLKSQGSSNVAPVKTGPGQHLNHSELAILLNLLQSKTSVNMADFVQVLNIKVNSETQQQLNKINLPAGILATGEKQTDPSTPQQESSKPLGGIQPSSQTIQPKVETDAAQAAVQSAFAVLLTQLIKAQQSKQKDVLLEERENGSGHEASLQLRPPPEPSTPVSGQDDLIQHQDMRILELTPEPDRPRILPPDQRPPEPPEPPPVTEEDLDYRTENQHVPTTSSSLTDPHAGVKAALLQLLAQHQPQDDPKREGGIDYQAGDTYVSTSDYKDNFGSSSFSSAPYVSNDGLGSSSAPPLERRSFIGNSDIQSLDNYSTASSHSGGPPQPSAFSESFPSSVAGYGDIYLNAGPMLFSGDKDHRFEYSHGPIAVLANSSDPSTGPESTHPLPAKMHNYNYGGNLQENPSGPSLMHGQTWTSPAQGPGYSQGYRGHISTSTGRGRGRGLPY", "T2 sequence (Q96SW2 whole entry, looked up)": "as the sequence (Q96SW2 whole entry, looked up) above", "test": "PROTAC activity at CRBN/CDK13 in human MDA-MB-231 cells assessed as induction of CDK13 degradation at 2 uM by […] proteomic analysis", "format": "cell-based"}, "[10]": {"test_system": "MDA-MB-231", "test": "Downregulation of ATR mRNA expression in human MDA-MB-231 cells incubated for 12 hrs by RT-qPCR analysis", "format": "functional, cell-based", "details": "dose 60-300 nM"}, "[11]": {"test_system": "MDA-MB-231", "test": "Downregulation of BRCA1 mRNA expression in human MDA-MB-231 cells incubated for 12 hrs by RT-qPCR analysis", "format": "functional, cell-based", "details": "dose 60-300 nM"}, "[12]": {"test": "Antiproliferative activity against human MRC5 cells assessed as inhibition of cell growth incubated for 5 days by CCK8 assay", "format": "toxicity, cell-based"}, "[13]": {"test_system": "MDA-MB-231", "test": "Synergistic antiproliferative activity against human MDA-MB-231 cells assessed as combination index at 1.5 uM incubated for 5 days in presence of olaparib by CCK8 assay", "format": "functional", "details": "time 5 day"}, "[14]": {"target": "T1, Protein cereblon/Cyclin-dependent kinase 12 (Homo sapiens)", "test": "PROTAC activity at CRBN/CDK12 in human MDA-MB-231 cells assessed as induction of CDK12 degradation at 1 uM pretreated with 3-benzyl-1-((1r,4r)-4-((5-cyanopyridin-2-yl)amino)cyclohexyl)-1-(4-(piperazin-1-yl)phenyl)urea followed by compound addition and measured after 10 hrs by immunoblotting analysis", "format": "cell-based"}, "[15]": {"target": "T2, Protein cereblon/Cyclin-dependent kinase 13 (Homo sapiens)", "test": "PROTAC activity at CRBN/CDK13 in human MDA-MB-231 cells assessed as induction of CDK13 degradation at 1 uM pretreated with MLN4924 followed by compound addition and measured after 10 hrs by immunoblotting analysis", "format": "cell-based"}, "[16]": {"target": "T1, Protein cereblon/Cyclin-dependent kinase 12 (Homo sapiens)", "test": "PROTAC activity at CRBN/CDK12 in human MDA-MB-231 cells assessed as induction of CDK12 degradation incubated for 15 hrs by immunoblotting analysis", "format": "cell-based"}, "[17]": {"test_system": "MDA-MB-231", "test": "Synergistic antiproliferative activity against human MDA-MB-231 cells assessed as combination index at 0.3 uM incubated for 5 days in presence of olaparib by CCK8 assay", "format": "functional", "details": "time 5 day"}, "[18]": {"target": "T1, Protein cereblon/Cyclin-dependent kinase 12 (Homo sapiens)", "test": "PROTAC activity at CRBN/CDK12 in human HCC38 cells assessed as induction of CDK12 degradation incubated for 15 hrs by immunoblotting analysis", "format": "cell-based", "details": "dose 0.01-3 µM"}, "[19]": {"test_system": "MDA-MB-231", "test": "Synergistic antiproliferative activity against human MDA-MB-231 cells assessed as combination index at 0.3 uM incubated for 5 days in presence of cisplatin by CCK8 assay", "format": "functional", "details": "time 5 day"}, "[20]": {"test_system": "MDA-MB-231", "test": "Downregulation of ATM protein level in human MDA-MB-231 cells at 0.1 to 0.5 uM incubated for 48 hrs by immunoblotting analysis", "format": "functional, cell-based", "details": "dose 0.1-0.5 µM"}, "[21]": {"target": "T2, Protein cereblon/Cyclin-dependent kinase 13 (Homo sapiens)", "test": "PROTAC activity at CRBN/CDK13 in human MDA-MB-231 cells assessed as induction of CDK13 degradation at 1 uM pretreated with MG132 followed by compound addition and measured after 10 hrs by immunoblotting analysis", "format": "cell-based"}, "[22]": {"test_system": "MDA-MB-231", "test": "Induction of CCNK degradation in human MDA-MB-231 cells at 2 uM incubated for 8 hrs by global proteomic analysis", "format": "cell-based"}, "[23]": {"test_system": "MDA-MB-231", "test": "Induction of CCNK degradation in human MDA-MB-231 cells incubated for 15 hrs by immunoblotting analysis", "format": "cell-based", "details": "dose 0.01-3 µM"}, "[24]": {"target": "T2, Protein cereblon/Cyclin-dependent kinase 13 (Homo sapiens)", "test": "PROTAC activity at CRBN/CDK13 in human MDA-MB-231 cells assessed as induction of CDK13 degradation at 1 uM pretreated with 3-benzyl-1-((1r,4r)-4-((5-cyanopyridin-2-yl)amino)cyclohexyl)-1-(4-(piperazin-1-yl)phenyl)urea followed by compound addition and measured after 10 hrs by immunoblotting analysis", "format": "cell-based"}, "[25]": {"test_system": "MDA-MB-231", "test": "Downregulation of FANCD2 mRNA expression in human MDA-MB-231 cells incubated for 12 hrs by RT-qPCR analysis", "format": "functional, cell-based", "details": "dose 60-300 nM"}, "[26]": {"test": "Antiproliferative activity against human MCF-10A cells assessed as inhibition of cell growth incubated for 5 days by CCK8 assay", "format": "toxicity, cell-based"}, "[27]": {"target": "T2, Protein cereblon/Cyclin-dependent kinase 13 (Homo sapiens)", "test": "PROTAC activity at CRBN/CDK13 in human MDA-MB-436 cells assessed as induction of CDK13 degradation incubated for 15 hrs by immunoblotting analysis", "format": "cell-based", "details": "dose 0.01-3 µM"}, "[28]": {"test": "Antiproliferative activity against HEK293 cells assessed as inhibition of cell growth incubated for 5 days by CCK8 assay", "format": "toxicity, cell-based", "details": "human"}, "[29]": {"test_system": "MDA-MB-231", "test": "Synergistic antiproliferative activity against human MDA-MB-231 cells assessed as inhibition of cell growth at 0.3 to 7.5 uM incubated for 5 days in presence of cisplatin by CCK8 assay", "format": "functional, cell-based", "details": "dose 0.3-7.5 µM, time 5.0 day"}, "[30]": {"target": "T2, Protein cereblon/Cyclin-dependent kinase 13 (Homo sapiens)", "test": "PROTAC activity at CRBN/CDK13 in human MDA-MB-231 cells assessed as induction of CDK13 degradation at 1 uM by immunoblotting analysis", "format": "cell-based", "details": "time <= 24.0 hrs, TDE = time-dependent effect"}, "[31]": {"test_system": "MDA-MB-231", "test": "Downregulation of BRCA1 protein level in human MDA-MB-231 cells at 0.1 to 0.5 uM incubated for 48 hrs by immunoblotting analysis", "format": "functional, cell-based", "details": "dose 0.1-0.5 µM"}, "[32]": {"target": "T2, Protein cereblon/Cyclin-dependent kinase 13 (Homo sapiens)", "test": "PROTAC activity at CRBN/CDK13 in human MDA-MB-231 cells assessed as induction of CDK13 degradation incubated for 15 hrs by immunoblotting analysis", "format": "cell-based"}, "[33]": {"test_system": "MDA-MB-231", "test": "Synergistic antiproliferative activity against human MDA-MB-231 cells assessed as combination index at 7.5 uM incubated for 5 days in presence of cisplatin by CCK8 assay", "format": "functional", "details": "time 5 day"}},
  "note": "The source made the active and inactive calls. The calls are words filed in the database; no cut-off is given here.",
  "data": [
    {"smiles": "N#Cc1ccc(N[C@H]2CC[C@H](N(C(=O)NCc3ccccc3)c3ccc(N4CCN(C5CCN(c6cc7c(cc6F)C(=O)N(C6CCC(=O)NC6=O)C7=O)CC5)CC4)cc3)CC2)nc1", "note": "(stereo partly drawn)", "values": [
      {"measurement": "Activity", "setting": "[1]", "result": "Active"},
      {"measurement": "Activity", "setting": "[2]", "result": "inactive"},
      {"measurement": "Activity", "setting": "[3]", "result": "Active"},
      {"measurement": "Activity", "setting": "[4]", "result": "Active"},
      {"measurement": "Activity", "setting": "[5]", "result": "Tde"},
      {"measurement": "Activity", "setting": "[6]", "result": "Dose-Dependent Effect"},
      {"measurement": "Activity", "setting": "[7]", "result": "Dose-Dependent Effect"},
      {"measurement": "Activity", "setting": "[8]", "result": "Active"},
      {"measurement": "Activity", "setting": "[9]", "result": "Active"},
      {"measurement": "Activity", "setting": "[10]", "result": "Dose-Dependent Effect"},
      {"measurement": "Activity", "setting": "[11]", "result": "Dose-Dependent Effect"},
      {"measurement": "IC50 at 5 days", "setting": "[12]", "result": "> 10", "unit": "µM"},
      {"measurement": "CI", "setting": "[13]", "result": 0.9},
      {"measurement": "Activity", "setting": "[14]", "result": "inactive"},
      {"measurement": "Activity", "setting": "[15]", "result": "inactive"},
      {"measurement": "Activity", "setting": "[16]", "result": "Dose-Dependent Effect"},
      {"measurement": "CI", "setting": "[17]", "result": ">1"},
      {"measurement": "Activity", "setting": "[18]", "result": "Dose-Dependent Effect"},
      {"measurement": "CI", "setting": "[19]", "result": ">1"},
      {"measurement": "Activity", "setting": "[20]", "result": "Active"},
      {"measurement": "Activity", "setting": "[21]", "result": "inactive"},
      {"measurement": "Activity", "setting": "[22]", "result": "Active"},
      {"measurement": "Activity", "setting": "[23]", "result": "Dose-Dependent Effect"},
      {"measurement": "Activity", "setting": "[24]", "result": "inactive"},
      {"measurement": "Activity", "setting": "[25]", "result": "Dose-Dependent Effect"},
      {"measurement": "IC50 at 5 days", "setting": "[26]", "result": "> 10", "unit": "µM"},
      {"measurement": "Activity", "setting": "[27]", "result": "Dose-Dependent Effect"},
      {"measurement": "IC50 at 5 days", "setting": "[28]", "result": "> 10", "unit": "µM"},
      {"measurement": "Activity", "setting": "[29]", "result": "Active"},
      {"measurement": "Activity", "setting": "[30]", "result": "Tde"},
      {"measurement": "Activity", "setting": "[31]", "result": "Active"},
      {"measurement": "Activity", "setting": "[32]", "result": "Dose-Dependent Effect"},
      {"measurement": "CI", "setting": "[33]", "result": 0.07}
    ]}
  ]
}
